Experimental data taken from US20150118165A1, “USE OF CYCLOHEXANOL ETHERS HAVING ANTIMICROBIAL PROPERTIES” (Merck Patent GmbH, priority 2012, published 2015).

Assays:
[1] = test system: Malassezia furfur; test: Antimicrobial action, microbe count (procedure as Example 1, count after 72 h); assay type: cell-based; conditions: 1.0% in H2O
Method: (§1) For sample preparation, the substance I-2 being investigated is homogeneously dispersed in an amount of 1.0% in a water/ethanol mixture (12% of ethanol) (=sample). A suspension of Staphylococcus epidermidis (ATCC 12228) having an optical density of 1.0 in CASO broth (Merck 1.05459) is diluted 1:10000 with CASO broth. 500 μl of sample are added to 500 μl of microorganism suspension, and the mixture is incubated at 35° C. for 24 h or 48 h. After the incubation, the test batches are diluted to −6 in 10 unit steps, and 0.1 ml of each is plated-out on CASO agar (Merck 1.05458) and incubated at 35° C. for 24 h.
(§2) In order to determine the initial microbe count, 0.1 ml of the bacteria suspension used are plated-out on CASO agar (Merck 1.05458) and incubated at 35° C. for 24 h.
(§3) The colonies are subsequently counted, and the microbe count per ml is determined compared with the negative control (12% of ethanol in water).
(§4) Procedure in Accordance with Example 1
(§5) The concentrations indicated are the final use concentrations. In order to prepare the stock solution, double the final concentration are prepared in the solvent indicated. This is subsequently diluted 1:2 with the corresponding microbe suspension. In the case of Aspergillus brasiliensis, the microbe count determination is exceptionally carried out after 48 h, in the case of Malassezia furfur after 72 h.

[2] = test system: Aspergillus brasiliensis; test: Antimicrobial action, microbe count (procedure as Example 1, count after 48 h); assay type: cell-based; conditions: for Δlog: count after 48 h vs t0; for Microbe count t24 h: count after 48 h
Method: as §1, §2, §3, §4, §5

[3] = Measurement of density and viscosities (Ubbelohde viscometer) to estimate spreadability; assay type: physicochemical
Method: After measurement of the densities and kinematic viscosities using an Ubbelohde viscometer, the following dynamic viscosities arise:
Kinematic viscosity of I-1: 15.2 mm^2/s Density of I-1: 0.9897 g/cm^3; 25° C.
Dynamic viscosity of I-1=kinematic viscosity of I-1×density I-1=15.0 [mPas]
Since spreadabilities and viscosities of cosmetic emollients correlate well, good spreadabilities can be concluded from the viscosities determined.

[4] = test system: Echerichia coli; test: Antimicrobial action, microbe count (procedure as Example 1); assay type: cell-based, Escherichia coli; conditions: for Δlog: t24 h vs t0
Method: as §1, §2, §3, §4, §5

[5] = test system: Candida albicans; test: as above; assay type: cell-based; conditions: for Δlog: t24 h vs t0
Method: as §1, §2, §3, §4, §5

[6] = test system: Staphylococcus aureus; test: as above; assay type: cell-based; conditions: 1.0% in H2O(12% of ethanol)
Method: as §1, §2, §3, §4, §5

[7] = test system: Propionibacterium acnes; test: as above; assay type: cell-based; conditions: for Δlog: t24 h vs t0
Method: as §1, §2, §3, §4, §5

[8] = test system: Serratia marcescens; test: as above; assay type: cell-based; conditions: for Δlog: t24 h vs t0
Method: as §1, §2, §3, §4, §5

[9] = test system: Salmonella enterica; test: as above; assay type: cell-based; conditions: for Δlog: t24 h vs t0
Method: as §1, §2, §3, §4, §5

[10] = test system: Corynebacterium xerosis; test: as above; assay type: cell-based; conditions: 0.5% in H2O
Method: as §1, §2, §3, §4, §5

[11] = test system: Staphylococcus epidermidis (ATCC 12228); test: Antimicrobial action, microbe count after incubation in CASO broth; assay type: cell-based; conditions: sample 1.0% in water/ethanol (12% of ethanol), 500 µl sample + 500 µl suspension; 35° C., 24 h or 48 h; initial count 5.8 × 10^4
Method: as §1, §2, §3

[12] = 0.25% in H2O, count t0 3.2 × 10^5
[13] = 0.25% in H2O, count t0 1.3 × 10^6

For `OCCOC1CCCCC1` [Substance I-1], the Δlog ([1]; count after 72 h vs t0) was −2.60, the “Microbe count t24 h” value ([1]; count t0 4.0 × 10^2, count after 72 h) was 0 and the Δlog ([2]; 1.0% in H2O(12% of ethanol)) was −0.90. For the same compound, the “Microbe count t24 h” value ([2]; 1.0% in H2O(12% of ethanol), count t0 8.0 × 10^2) was 1.0 × 10^2, the Density ([3]; 25° C.) was 0.9897 g/mL and the Kinematic viscosity ([3]; Ubbelohde viscometer) was 15.2 mm^2/s. For the same compound, the Dynamic viscosity ([3]; kinematic viscosity × density) was 15.0 mPas, the “Microbe count t24 h” value [4, 12] was 8.0 × 10^8 and the Δlog ([4]; 0.25% in H2O) was “+3.40”. The “Microbe count t24 h” value ([4]; 0.8% in H2O(12% of ethanol), count t0 6.3 × 10^4) was 0, the Δlog ([4]; 0.8% in H2O(12% of ethanol)) was −4.80 and the “Microbe count t24 h” value [5, 13] was 4.3 × 10^6. For the same compound, the Δlog ([5]; 0.25% in H2O) was “+0.53”, the “Microbe count t24 h” value ([5]; 1.0% in H2O(12% of ethanol), count t0 6.0 × 10^3) was 0 and the Δlog ([5]; 1.0% in H2O(12% of ethanol)) was −3.78. The “Microbe count t24 h” value ([6]; count t0 7.2 × 10^4) was 2.5 × 10^2, the Δlog ([6]; t24 h vs t0) was −2.46 and the “Microbe count t24 h” value ([7]; 1.0% in H2O, count t0 7.8 × 10^5) was 7.0 × 10^5. The Δlog ([7]; 1.0% in H2O) was −0.05, the “Microbe count t24 h” value ([8]; 0.5% in H2O, count t0 2.9 × 10^5) was 1.7 × 10^4 and the Δlog ([8]; 0.5% in H2O) was −1.23. For the same compound, the “Microbe count t24 h” value ([8]; 1.0% in H2O, count t0 2.5 × 10^5) was 0, the Δlog ([8]; 1.0% in H2O) was −5.40 and the “Microbe count t24 h” value ([9]; 0.5% in H2O, count t0 1.0 × 10^6) was 9.0 × 10^3. The Δlog ([9]; 0.5% in H2O) was −2.05, the “Microbe count t24 h” value ([9]; 0.8% in H2O(12% of ethanol), count t0 1.3 × 10^4) was 0 and the Δlog ([9]; 0.8% in H2O(12% of ethanol)) was −4.11. The “Microbe count t24 h” value ([10]; count t0 1.0 × 10^6) was 2.0 × 10^6 and the Δlog ([10]; t24 h vs t0) was “+0.30”.
For `COC1CCC(O)CC1` (stereo not shown) [Substance I-2], the Final microbe count [11] was 4.0 × 10^4 CFU/ml.
In the case of `OCCOC1CCC(OCCO)CC1` (stereo not shown) [Substance I-3, 2-[4-(2-hydroxyethoxy)cyclohexyloxy]ethanol], the “Microbe count t24 h” value ([2]; 0.5% in H2O, count t0 2.8 × 10^4) is reported as 1.6 × 10^4, the Δlog ([2]; 0.5% in H2O, t0 2.8 × 10^4) is reported as −0.24 and the Δlog ([2]; 1.0% in H2O) is reported as −1.30. The “Microbe count t24 h” value ([2]; 1.0% in H2O, count t0 2.8 × 10^4) was 1.4 × 10^3, the “Microbe count t24 h” value ([7]; 0.5% in H2O, count t0 3.4 × 10^5) was 4.0 × 10^7 and the Δlog ([7]; 0.5% in H2O) was “+2.07”.
For `CC(O)COC1CCCCC1` (stereo not shown) [Substance I-9], the “Microbe count t24 h” value [4, 12] was 4.30 × 10^8, the Δlog ([4]; 0.25% in H2O) was “+3.13” and the “Microbe count t24 h” value [5, 13] was 1.4 × 10^6. For the same compound, the Δlog ([5]; 0.25% in H2O) was “+0.04”.
